Results as given in patent US10450297B2, “Sulfonyl amide derivatives for the treatment of abnormal cell growth” (Pfizer, Inc., priority 2007, dated 2019).

Biological target: FAK kinase (catalytic construct FAK(410-689)) (Homo sapiens (Human), UniProt Q05397)
Experiment: FAKcd kinase ELISA (inhibition of poly-glu-tyr phosphorylation by FAK(410-689))
Format: biochemical
Conditions: 50 μM final ATP

Sequence of FAK kinase (catalytic construct FAK(410-689)) (Q05397 410-689): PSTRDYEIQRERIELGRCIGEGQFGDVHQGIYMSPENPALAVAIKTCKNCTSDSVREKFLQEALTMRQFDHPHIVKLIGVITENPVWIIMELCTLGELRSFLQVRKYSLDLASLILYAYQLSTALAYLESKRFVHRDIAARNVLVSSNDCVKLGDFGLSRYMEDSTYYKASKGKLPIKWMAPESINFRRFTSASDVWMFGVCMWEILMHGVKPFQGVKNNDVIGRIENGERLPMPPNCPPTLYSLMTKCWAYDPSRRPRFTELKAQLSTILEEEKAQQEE

Row | SMILES | IC50 [pM]
1 | CN(c1ncccc1CNc1nc(Nc2cccc(C(=O)N3CCNC(=O)C3)c2)ncc1C(F)(F)F)S(C)(=O)=O [Compound 213, N-methyl-N-[3-({[2-({3-[(3-oxopiperazin-1-yl)carbonyl]phenyl}amino)-5-(trifluoromethyl)pyrimidin-4-yl]amino}methyl)pyridin-2-yl]methanesulfonamide] | 2880
2 | CN(c1ncccc1CNc1nc(Nc2cccc(CN)c2)ncc1C(F)(F)F)S(C)(=O)=O [Compound 214, N-[3-({[2-{[3-(aminomethyl)phenyl]amino}-5-(trifluoromethyl)pyrimidin-4-yl]amino}methyl)pyridin-2-yl]-N-methylmethane-sulfonamide] | 700
3 | CC(=O)NCC(=O)NCc1ccc(Nc2ncc(C(F)(F)F)c(NCc3cccnc3N(C)S(C)(=O)=O)n2)cc1 [Compound 215, N~2~-acetyl-N-[4-({4-[({2-[methyl(methylsulfonyl)amino]pyridin-3-yl}methyl)amino]-5-(trifluoromethyl)pyrimidin-2-yl}amino)benzyl]glycinamide] | 600
4 | CN(c1ncccc1CNc1nc(Nc2ccc(CNC(N)=O)cc2)ncc1C(F)(F)F)S(C)(=O)=O [Compound 216, N-{3-[({2-[(4-{[(aminocarbonyl)amino]-methyl}phenyl)amino]-5-(trifluoromethyl)pyrimidin-4-yl}amino)methyl]pyridin-2-yl}-N-methylmethane-sulfonamide] | 600
5 | CN(c1ncccc1CNc1nc(Nc2ccc(CC(=O)NC3CC3)cc2)ncc1C(F)(F)F)S(C)(=O)=O [Compound 217, N-cyclopropyl-2-[4-({4-[({2~ [methyl(methylsulfonyl)amino]pyridin-3-yl}methyl)amino]-5-(trifluoromethyl)pyrimidin-2-yl}amino)phenyl]acetamide] | 600
6 | CC(=O)NCc1cccc(Nc2ncc(C(F)(F)F)c(NCc3cccnc3N(C)S(C)(=O)=O)n2)c1 [Compound 218, N-[3-({4-[({2-[methyl(methylsulfonyl)amino]pyridin-3-yl}methyl)amino]-5-(trifluoromethyl)pyrimidin-2-yl}amino)benzyl]acetamide] | 600
7 | CN(c1ncccc1CNc1nc(Nc2ccc(C(=O)OC(C)(C)C)cc2)ncc1C(F)(F)F)S(C)(=O)=O [Compound 219, tert-butyl 4-({4-[({2-[methyl(methylsulfonyl)amino]pyridin-3-yl}methyl)amino]-5-(trifluoromethyl)pyrimidin-2-yl}amino)benzoate] | 600
8 | Cc1ccc(C#N)cc1Nc1ncc(C(F)(F)F)c(NCc2cccnc2N(C)S(C)(=O)=O)n1 [Compound 220, N-{3-[({2-[(5-cyano-2-methylphenyl)amino]-5-(trifluoromethyl)pyrimidin-4-yl}amino)methyl]pyridin-2-yl}-N-methylmethane-sulfonamide] | 600
9 | Cc1cc(Nc2ncc(C(F)(F)F)c(NCc3cccnc3N(C)S(C)(=O)=O)n2)ccn1 [Compound 221, N-methyl-N-{3-[({2-[(2-methylpyridin-4-yl)amino]-5-(trifluoromethyl)pyrimidin-4-yl}amino)methyl]pyridin-2-yl}methanesulfonamide] | 188000
10 | CN(c1ncccc1CNc1nc(Nc2cccc(CNC(N)=O)c2)ncc1C(F)(F)F)S(C)(=O)=O [Compound 222, N-{3-[({2-[(3-{[(aminocarbonyl)amino]-methyl}phenyl)amino]-5-(trifluoromethyl)pyrimidin-4-yl}amino)methyl]pyridin-2-yl}-N-methylrnethanesulfonamide] | 600
11 | CC(=O)NCC(=O)NCc1cccc(Nc2ncc(C(F)(F)F)c(NCc3cccnc3N(C)S(C)(=O)=O)n2)c1 [Compound 223, N-2-acetyl-N-[3-({4-[({2-[methyl(methylsulfonyl)amino]pyridin-3-yl}methyl)amino]-5-(trifluoromethyl)pyrimidin-2-yl}amino)benzyl]glycinamide] | 600
12 | CN(C)C(=O)c1ccc(Nc2ncc(C(F)(F)F)c(NCc3ccccc3N(C)S(C)(=O)=O)n2)cc1 [Compound 224, N,N-dimethyl-4-{[4-({2-[methyl(methylsulfonyl)amino]benzyl}amino)-5-(trifluoromethyl)pyrimidin-2-yl]amino}benzamide] | 600
13 | CN(C)C(=O)c1ccc(Nc2ncc(C(F)(F)F)c(NCc3ccccc3NS(C)(=O)=O)n2)cc1 [Compound 225, N,N-dimethyl-4-{[4-({2-[(methylsuifonyl)amino]benzyl}amino)-5-(trifluoromethyl)pyrimidin-2-yl]amino}benzamide] | 980
14 | Cc1ccc(CNc2nc(Nc3ccc(C(=O)N(C)C)cc3)ncc2C(F)(F)F)c(NS(C)(=O)=O)c1 [Compound 226, N,N-dimethyl-4-{[4-({4-methyl-2-[(methylsulfonyl)amino]benzyl}amino)-5-(trifluoromethyl)pyrimidin-2-yl]amino}benzamide] | 2920
15 | CN(C)C(=O)c1ccc(Nc2ncc(C(F)(F)F)c(NCc3cccc(N(C)S(C)(=O)=O)c3)n2)cc1 [Compound 228, N, N-dimethyl-4-{[4-({3-[methyl(methylsulfonyl)amino]benzyl}amino)-5-(trifluoromethyl)pyrimidin-2-yl]amino}benzamide] | 2190
16 | CN(C)C(=O)c1ccc(Nc2ncc(C(F)(F)F)c(NCc3cccnc3N(C)S(C)(=O)=O)n2)cc1 [Compound 230, N,N-dimethyl-4-({4-[({2-[methyl(methylsulfonyl)amino]pyridin-3-yl}methyl)amino]-5-(trifluoromethyl)pyrimidin-2-yl}amino)benzamide] | 2380
17 | Cc1ccc(CNc2nc(Nc3ccc(C(=O)N(C)C)cc3)ncc2C(F)(F)F)c(N(C)S(C)(=O)=O)n1 [Compound 231, N,N-dimethyl-4-({4-[({6-methyl-2-[methyl(methylsulfonyl)amino]pyridin-3-yl}methyl)amino]-5-(trifluoromethyl)pyrimidin-2-yl}amino)benzamide] | 600
18 | CN(c1ncccc1CNc1nc(Nc2ccc(C(=O)N3C[C@@H](F)[C@H](F)C3)cc2)ncc1C(F)(F)F)S(C)(=O)=O [Compound 232, N-{3-[({2-[(4-{[(3R,4R)-3,4-difluoropyrrolidin-1-yl]carbonyl}phenyl)amino]-5-(trifluoromethyl)pyrimidin-4-yl}amino)methyl]pyridin-2-yl}-N-methylmethane-sulfonamide] | 2620
19 | CN(C)CCCNC(=O)c1ccc(Nc2ncc(C(F)(F)F)c(NCc3cccnc3N(C)S(C)(=O)=O)n2)cc1 [Compound 233, N-[3-(dimethylamino)propyl]-4-({4-[({2-[methyl(methylsulfonyl)amino]pyridin-3-yl}methyl)amino]-5-(trifluoromethyl)pyrimidin-2-yl}amino)benzamide] | 1330
20 | CN(CCO)C(=O)c1ccc(Nc2ncc(C(F)(F)F)c(NCc3cccnc3N(C)S(C)(=O)=O)n2)cc1 [Compound 234, N-(2-hydroxyethyl)-N-methyl-4-({4-{({2-[methyl(methylsulfonyl)amino]pyridin-3-yl}methyl)amino]-5-(trifluoromethyl)pyrimidin-2-yl}amino)benzamide] | 2320
21 | CN(c1ncccc1CNc1nc(Nc2ccc(C(=O)N3CC[C@H](F)C3)cc2)ncc1C(F)(F)F)S(C)(=O)=O [Compound 236, N-{3-[({2-[(4-{[(3S)-3-fluoropyrrolidin-1-yl]carbonyl}phenyl)amino]-5-(trifluoromethyl)pyrimidin-4-yl}amino)methyl]pyridin-2-yl}-N-methylmethane-sulfonamide] | 1410
22 | CN(c1ncccc1CNc1nc(Nc2ccc(C(=O)N3CCCC3)cc2)ncc1C(F)(F)F)S(C)(=O)=O [Compound 237, N-methyl-N-[3-({[2-{[4-(pyrrolidin-1-ylcarbonyl)phenyl]amino}-5-(trifluoromethyl)pyrimidin-4-yl]amino}methyl)pyridin-2-yl]methanesulfonamide] | 2050
23 | CN(c1ncccc1CNc1nc(Nc2ccc(C(=O)NC[C@H]3CCCO3)cc2)ncc1C(F)(F)F)S(C)(=O)=O [Compound 238, 4-({4-[({2-[methyl(methylsulfonyl)amino]pyridin-3-yl}methyl)amino]-5-(trifluoromethyl)pyrimidin-2-yl}amino)-N-[(2R)-tetrahydrofuran-2-ylmethyl]benzamide] | 1250
24 | CN(c1ncccc1CNc1nc(Nc2ccc(C(=O)N3CCC(O)CC3)cc2)ncc1C(F)(F)F)S(C)(=O)=O [Compound 239, N-[3-({[2-({4-[(4-hydroxypiperidin-1-yl)carbonyl]phenyl}amino)-5-(trifluoromethyl)pyrimidin-4-yl]amino}methyl)pyridin-2-yl]-N-methylmethane-sulfonamide] | 600
25 | CN(c1ncccc1CNc1nc(Nc2ccc(C(=O)NC3CCC3)cc2)ncc1C(F)(F)F)S(C)(=O)=O [Compound 240, N-cyclobutyl-4-({4-[({2-[methyl(methylsulfonyl)amino]pyridin-3-yl}methyl)amino]-5-(trifluoromethyl)pyrimidin-2-yl}amino)benzamide] | 690
26 | CC(C)C(CO)NC(=O)c1ccc(Nc2ncc(C(F)(F)F)c(NCc3cccnc3N(C)S(C)(=O)=O)n2)cc1 (centres unmarked) [Compound 241, N-[1-(hydroxymethyl)-2-methylpropyl]-4-({4-[{{2-[methyl(methylsulfonyl)amino]pyridin-3-yl}methyl)amino]-5-(trifluoromethyl)pyrimidin-2-yl}amino)benzamide] | 600
27 | CC(C)NC(=O)c1ccc(Nc2ncc(C(F)(F)F)c(NCc3cccnc3N(C)S(C)(=O)=O)n2)cc1 [Compound 242, N-isopropyl-4-({4-[({2-[methyl(methylsulfonyl)amino]pyridin-3-yl}methyl)amino]-5-(trifluoromethyl)pyrimidin-2-yl}amino)benzamide] | 1000
28 | CN(CC1CC1)C(=O)c1ccc(Nc2ncc(C(F)(F)F)c(NCc3cccnc3N(C)S(C)(=O)=O)n2)cc1 [Compound 243] | 2100
29 | CN(c1ncccc1CNc1nc(Nc2ccc(C(=O)NCCO)cc2)ncc1C(F)(F)F)S(C)(=O)=O [Compound 244, N-(2-hydroxyethyl)-4-({4-[({2-[methyl(methylsulfonyl)amino]pyridin-3-yl}methyl)amino]-5-(trifluoromethyl)pyrimidin-2-yl}amino)benzamide] | 1110
